According to patent US8299069B2, “2-(2-oxoindoline-3-ylidene)methyl-5-(2-hydroxy-3-morpholin-4-yl-propyl)-6,7-dihydro-1H-pyrrol[3,2-C]pyridine-4(5H)-one compounds and use as protein kinase inhibitors” (Jiangsu Hengrui Medicine Co., Ltd., priority 2007, dated 2012):

What was measured:
HUVEC cell = assay: Cell proliferation inhibition assay (SRB) on HUVEC cells highly expressing VEGFR; details: Homo sapiens, 72 h, read-out: IC50 (VEGFR/HUVEC)
Excerpt: The cellular assay described here is used to test anti-angiogenesis and proliferation inhibition activity and effect of the compounds through VEGFR on the cancer cells in vitro. The effect and activity is represented by the IC50 value that kills the cancer cells. The general procedures of the assay are as follows: The Homo sapiens cells that highly expressing VEGFR were chosen and seeded to 96-well cell culture plate at a suitable concentration (e.g., 5000 cells/mL medium). […] Then, the cell culture medium was replaced by fresh one with testing compounds added in it at serial concentrations (general 6 or 7 concentrations). Then the cells were put back to the incubator and cultured for 72 hours continuously. 72 hours later, the treated compounds were assayed for their proliferation status by using Sulforhodamine B (SRB) method. IC50 of compounds on tested cells was calculated by using data of inhibition rate of serial concentrations of the testing compounds.
The following protocol is used to assay the cell toxicity (anti-proliferation activity, which is expressed as IC50 value) of testing compounds of the invention on HUVEC cell: • 1. HUVEC cells were cultured with growth media (DMEM/F12, supplemented with 10% FBS) in 100 mm corning culture plate at 37° C., 5% CO2 till confluency. • 2. HUVEC cells were washed with cold PBS solution, then the cells were harvested by trypsinization and seeded in corning 96-well cell culture plates at a concentration of 50,000 cells/ml, 6 empty wells were left on each plate as plate background. • 3. The cells were cultured in 96-well plates at 37° C., 5% CO2, till 85% confluency. • 4. The compound stock solution was prepared by using DMSO to solve candidate compounds to a concentration of 20 mM. Then DMSO was used to dilute the stock solution to a serial concentration to prepare testing compound solution samples (e.g., 2 mM, 1 mM, 0.2 mM, 20 μM, 2 μM, 0.2 μM). • 5. Cell culture medium (DMEM/F12+10% FBS) was used to dilute the compound solution prepared previously. […] Background absorbance was measured in wells incubated only with growth medium. • 11. […]

[1] = biological target: recombinant human VEGF-R2 (Homo sapiens, UniProt P35968); assay: VEGF-R2 kinase assay (ELISA, DELFIA time-resolved fluorescence)
Chain of recombinant human VEGF-R2 (P35968 789-1356 limits assumed): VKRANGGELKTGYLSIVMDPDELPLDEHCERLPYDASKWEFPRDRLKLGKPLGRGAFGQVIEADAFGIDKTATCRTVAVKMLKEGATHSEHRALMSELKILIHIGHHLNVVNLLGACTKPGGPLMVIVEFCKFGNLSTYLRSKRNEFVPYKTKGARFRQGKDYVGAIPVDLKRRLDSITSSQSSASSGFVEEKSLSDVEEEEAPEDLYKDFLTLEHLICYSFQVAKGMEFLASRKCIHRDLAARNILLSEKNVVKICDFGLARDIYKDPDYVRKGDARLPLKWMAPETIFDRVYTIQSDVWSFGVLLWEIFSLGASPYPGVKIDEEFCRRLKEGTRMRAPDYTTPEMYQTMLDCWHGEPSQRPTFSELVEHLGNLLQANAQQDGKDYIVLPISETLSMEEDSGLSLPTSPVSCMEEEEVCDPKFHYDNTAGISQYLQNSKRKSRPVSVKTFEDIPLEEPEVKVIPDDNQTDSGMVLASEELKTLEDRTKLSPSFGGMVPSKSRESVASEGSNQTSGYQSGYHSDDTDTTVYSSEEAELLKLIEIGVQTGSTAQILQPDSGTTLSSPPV
Description: This assay is used to measure the in vitro kinase activity of recombinant human VEGF-R2 in an enzyme-linked immunosorbent assay (ELISA).
• a. […] Stopping solution: 50 mM EDTA, pH 8.0. • d. DELFIA® Europium-labeled Anti-mouse IgG (PerkinElmer Life Sciences #AD0124). • e. […] DELFIA® Streptavidin coated, 96-well, yellow plate (PerkinElmer Life Sciences #AAAND-0005). • g. Recombinant human VEGFR-2 kinase (supplied in 50 mM Tris-HCl, pH8.0, 100 mM NaCl, 5 mM DTT, 15 mM reduced glutathione and 20% glycerol). […] HTScan™ Tyrosine Kinase Buffer (4×). • 1× Kinase Buffer: • 60 mM HEPES • 5 mM MgCl2 • 5 mM MnCl2 • 3 μM Na3VO4 • l. […] Procedure
The following protocol was used: • 1. […] VEGFR-2 kinase was transferred from −80° C. to ice immediately, and the kinase was thawed on ice. • 4. 2.2 μs VEGFR-2 enzyme was added to enzyme tube. • 5. […] 0.75 ml of DTT/Kinase buffer was transferred to the enzyme tube to prepare 4× reaction cocktail, and 7.5 μl 4× reaction cocktail was added to each assay. • 7. 2 μl ATP (10 mM) was added to 498 μl dH2O, and 7.5 μl was added to each assay. […] The reaction tube was incubated at 25° C. for 30 minutes. • 9. 30 μl/assay stopping solution (50 mM EDTA, pH 8.0) was added to stop the reaction. • 10. 25 μl of each reaction and 75 μl dH2O were transferred to a 96-well streptavidin coated plate, with shaking at room temperature for 60 minutes. • 11. Each well was washed for three times with 200 μl PBS-T buffer. Plate was patted on paper towel to remove excess liquid. • 12. […] The plate was incubated with shaking at room temperature for 60 minutes. • 14. Washing step was carried out as described in step 11. • 15. […] The plate was incubated with shaking at room temperature for 30 minutes. • 17. Each well was washed for five times with 200 μl PBS-T buffer. Plate was patted on paper towel to remove excess liquid. • 18. 100 μl DELFIA® Enhancement Solution was added to each well. • 19. The plate was incubated with shaking at room temperature for 5 minutes. • 20. The fluorescence intensity was detected at wavelength of 615 nm in a time-resolved fluorescence mode on plate reader.
The IC50 value can be calculated from the IRs of compounds at different concentration gradients.

| SMILES | IC50 (HUVEC cell) | IC50 [1] |
| --- | --- | --- |
| Cc1c(/C=C2\C(=O)Nc3cccc(-c4cccc(F)c4F)c32)[nH]c2c1C(=O)N(C[C@H](O)CN1CCOCC1)CC2 [Example 3, 2-[(Z)-4-(2,3-Difluoro-phenyl)-2-oxo-1,2-dihydro-indol-3-ylidenemethyl]-5-[(R)-2-hydroxy-3-morpholin-4-yl-propyl]-3-methyl-1,5,6,7-tetrahydro-pyrrolo[3,2-c]pyridin-4-one] | 840 nM | – |
| Cc1c(/C=C2\C(=O)Nc3ccc(Br)cc32)[nH]c2c1C(=O)N(C[C@H](O)CN1CCOCC1)CC2 [Example 4, (R,Z)-2-(5-Bromo-2-oxo-1,2-dihydro-indol-3-ylidenemethyl)-5-(2-hydroxy-3-morpholin-4-yl-propyl)-3-methyl-1,5,6,7-tetrahydro-pyrrolo[3,2-c]pyridin-4-one] | – | 998 nM |
| Cc1c(/C=C2\C(=O)Nc3cc(NC(=O)C(C)(C)O)c(F)cc32)[nH]c2c1C(=O)N(C[C@H](O)CN1CCOCC1)CC2 [Example 17, (R,Z)-N-{5-Fluoro-3-[5-(2-hydroxy-3-morpholin-4-yl-propyl)-3-methyl-4-oxo-4,5,6,7-tetrahydro-1H-pyrrolo[3,2-c]pyridin-2-ylmethylene]-2-oxo-2,3-dihydro-1H-indol-6-yl}-2-hydroxy-2-methyl-propionamide] | – | 4 nM |
| Cc1c(/C=C2\C(=O)Nc3cccc(-c4c(F)cccc4F)c32)[nH]c2c1C(=O)N(C[C@@H](O)CN1CCOCC1)CC2 [Example 20, (S,Z)-2-[4-(2,6-Difluoro-phenyl)-2-oxo-1,2-dihydro-indol-3-ylidenemethyl]-5-(2-hydroxy-3-morpholin-4-yl-propyl)-3-methyl-1,5,6,7-tetrahydro-pyrrolo[3,2-c]pyridin-4-one] | 10 nM | – |
| Cc1c(/C=C2\C(=O)Nc3cc(NC(=O)C(C)(C)O)c(F)cc32)[nH]c2c1C(=O)N(C[C@@H](O)CN1CCOCC1)CC2 [Example 11, (S,Z)-N-{5-Fluoro-3[5-(2-hydroxy-3-morpholin-4-yl-propyl)-3-methyl-4-oxo-4,5,6,7-tetrahydro-1H-pyrrolo[3,2-c]pyridin-2-ylmethylene]-2-oxo-2,3-dihydro-1H-indol-6-yl}-2-hydroxy-2-methyl-propionamide] | – | 3 nM |
| COCC(=O)Nc1cc2c(cc1F)/C(=C/c1[nH]c3c(c1C)C(=O)N(C[C@@H](O)CN1CCOCC1)CC3)C(=O)N2 [Example 13, (S,Z)-N-{5-Fluoro-3-[5-(2-hydroxy-3-morpholin-4-yl-propyl)-3-methyl-4-oxo-4,5,6,7-tetrahydro-1H-pyrrolo[3,2-c]pyridin-2-ylmethylene]-2-oxo-2,3-dihydro-1H-indol-6-yl}-2-methoxy-acetamide] | – | 130 nM |
| COCC(=O)Nc1cc2c(cc1F)/C(=C/c1[nH]c3c(c1C)C(=O)N(C[C@H](O)CN1CCOCC1)CC3)C(=O)N2 [Example 16, (R,Z)-N-{5-Fluoro-3-[5-(2-hydroxy-3-morpholin-4-yl-propyl)-3-methyl-4-oxo-4,5,6,7-tetrahydro-1H-pyrrolo[3,2-c]pyridin-2-ylmethylene]-2-oxo-2,3-dihydro-1H-indol-6-yl}-2-methoxy-acetamide] | – | 110 nM |
| Cc1c(/C=C2\C(=O)Nc3ccc(Cl)cc32)[nH]c2c1C(=O)N(C[C@H](O)CN1CCOCC1)CC2 [Example 2, (R,Z)-2-(5-Chloro-2-oxo-1,2-dihydro-indol-3-ylidenemethyl)-5-(2-hydroxy-3-morpholin-4-yl-propyl)-3-methyl-1,5,6,7-tetrahydro-pyrrolo[3,2-c]pyridin-4-one] | 2400 nM | – |
